Experimental data reported in PubChem BioAssay (NCI).
Where “and” joins values, the source holds several entries; their conditions need not be identical. Equal entries are not always repeated.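 Cultured in 96-well plates, cells were exposed to test compound for 48 hours across five concentrations. Here, GI50 denotes the concentration required for 50% inhibition of growth. TGI: concentration producing complete growth inhibition.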

Experiments:
Assay in all cases: inhibition of tumour cell growth, NCI panel, 48 h
A549 NSCLC = system: A549 NSCLC
EKVX NSCLC = system: EKVX NSCLC
HCC-2998 colon = system: HCC-2998 colon
HOP-92 NSCLC = system: HOP-92 NSCLC
M14 melanoma = system: M14 melanoma
MOLT-4 leukemia = system: MOLT-4 leukemia
SF-268 CNS = system: SF-268 CNS
SK-MEL-2 melanoma = system: SK-MEL-2 melanoma
SN12C renal = system: SN12C renal
TK-10 renal = system: TK-10 renal

SMILES | TGI (A549 NSCLC) [µM] | TGI (EKVX NSCLC) [µM] | TGI (HCC-2998 colon) [µM] | TGI (HOP-92 NSCLC) | TGI (M14 melanoma) [µM] | TGI (MOLT-4 leukemia) | TGI (SF-268 CNS) [µM] | TGI (SK-MEL-2 melanoma) | TGI (SN12C renal) [µM] | TGI (TK-10 renal) [µM] | GI50 (A549 NSCLC) [µM] | GI50 (EKVX NSCLC) [µM] | GI50 (HCC-2998 colon) [µM] | GI50 (HOP-92 NSCLC) | GI50 (M14 melanoma) [µM] | GI50 (MOLT-4 leukemia) [µM] | GI50 (SF-268 CNS) | GI50 (SK-MEL-2 melanoma) [µM] | GI50 (SN12C renal) [µM] | GI50 (TK-10 renal) [µM]
CC(=O)Nc1cc2cc(NS(=O)(=O)c3ccc(Cl)c(Cl)c3)ccc2oc1=O | > 100 | > 100 | > 100 | 60.5 µM | > 100 | > 100 µM | 61.7 | > 100 µM | 64.8 | > 100 |  |  |  |  |  |  |  |  |  | 
COc1cc(/C=C(\NC(=O)c2ccccc2)c2nc3ncncc3[nH]2)cc(OC)c1OC | > 100 | > 100 | > 100 | > 100 µM | > 100 | > 100 µM | > 100 | > 100 µM | > 100 | > 100 |  |  |  |  |  |  |  |  |  | 
CS(=O)(=O)c1cccc(Nc2ncc3cc(-c4ccccc4Cl)ccc3n2)c1 | > 33.3 | > 33.3 | > 33.3 | 7.56 µM | > 33.3 | 14.6 µM | > 33.3 | 2.61 µM | > 33.3 | 17.3 | 1.78 | 1.37 | 2.8 | 1.3 µM | 1.15 | 1.42 | 1.35 µM | 0.92 | 1.12 | 1.9
N#C/C(=C1\OC(=N)C(c2ccccc2)C1=O)c1ccccc1 (stereo not given) | > 100 | > 73.2 | > 100 | > 71.3 µM | > 59.5 | 74.6 µM | > 100 | > 100 µM | > 81.6 | 68.5 |  |  |  |  |  |  |  |  |  | 
O=C(NCCOCCOCCOCCNC(=O)c1cc2c(o1)C(=O)c1ccccc1C2=O)NC12CC3CC(CC(C3)C1)C2 | 2.34 | 7.07 | 4.02 | 10.7 µM | 1.8 | 8.04 µM | 6.22 | 5.46 µM | 2.71 | 7.24 | 0.517 | 2.57 | 1.99 | 3.08 µM | 0.462 | 2.87 | 2.29 µM | 2.15 | 1.34 | 3.68
CC(=O)/C(Br)=C/c1ccc(Br)o1 | 86.4 | 28.1 | 36.7 | 23.9 µM | 13.7 | 15.3 µM | 23.6 | 23.9 µM | 26.7 | 17.9 | 26.8 | 14.6 | 19 | 8.63 µM | 4.71 | 3.03 | 7.58 µM | 8.59 | 8.11 | 5.42
c1ccc(Oc2ccc(Nc3ncc(-c4ccccc4)o3)cc2)cc1 | > 25 | > 25 | > 25 | > 25 µM | > 25 | > 25 µM | > 25 | > 25 µM | > 25 | > 25 | > 25 | > 25 | > 25 | 23.9 µM | > 25 | > 25 | > 25 µM | > 25 | > 25 | > 25
COc1ccc(-c2cn(-c3ccc(OC)c(OC)c3)c(=O)[nH]2)cc1 | > 100 | > 100 | > 100 | > 100 µM | > 100 | > 100 µM | > 100 | > 100 µM | > 100 | > 100 | > 100 | > 100 | > 100 | > 100 µM | > 100 | 1.72 | > 100 µM | > 100 | > 100 | > 100
O=C(CCC(=O)Nc1cccc(C(F)(F)F)c1)CC(=O)c1ccc2ccccc2c1 | > 100 | > 100 | > 100 | > 100 µM | > 100 | > 100 µM | > 100 | > 100 µM | > 100 | > 100 |  |  |  |  |  |  |  |  |  | 
COc1cc(-c2nc3ccccc3o2)cc(CN2CCCCC2)c1O | 4.12 | > 100 | 22.4 | > 100 µM | 3.26 | 37.4 µM | > 100 | 15.8 µM | 4.25 | > 85.8 | 1.63 | 12.3 | 4.73 | 27 µM | 1.48 | 4.99 | 5.12 µM | 4.58 | 1.5 | 31.2
Nc1nc2c(-c3ccc([N+](=O)[O-])cc3)nnn2c2ccccc12 | > 100 | > 100 | > 100 | > 100 µM | > 100 | > 100 µM | > 100 | > 100 µM | > 100 | 48.9 |  |  |  |  |  |  |  |  |  | 
NS(=O)(=O)c1ccc(NC(=O)C2C(=O)C(=O)N(c3ccc(S(N)(=O)=O)cc3)C2=O)cc1 (stereo not given) | > 100 | > 100 | > 100 | > 100 µM | > 100 | > 100 µM | > 100 | > 100 µM | > 100 | > 100 |  |  |  |  |  |  |  |  |  | 
C=C1C(=O)O[C@H]2[C@H]1CC/C(COC(=O)/C=C\C(=O)NCc1ccc(Cn3c(=O)sn(CCI)c3=O)cc1)=C\CC[C@@]1(C)O[C@@H]21 | 30.5 | 20.2 | 27.8 | 4.6 µM | 19.7 | 6.32 µM | 23.6 | 23.4 µM | 10.8 | 4.35 | 14.8 | 4.7 | 13.9 | 2.05 µM | 6.25 | 2.24 | 10.1 µM | 11.1 | 3.15 | 2.09
CCOC(=O)c1[nH]c2cc(OC)c(OC)cc2c1CN(C)C | > 100 | > 100 | > 100 | > 100 µM | > 100 | > 100 µM | > 100 | > 100 µM | > 100 | > 100 |  |  |  |  |  |  |  |  |  | 
O=C1NC2(CCCCC2)C(=O)N1CCN(CCCl)CCCl | > 250 | > 250 | > 250 | > 25 µM and 48.3 µM | > 25 | 22.5 µM and 196 µM | > 250 | 25 µM and > 141 µM | > 250 | > 25 | > 25 | > 25 | > 25 | > 25 µM and 22.9 µM |  | 7.1 | > 25 µM and 112 µM | 13.3 | > 25 | 
Cc1ccc(Cl)c(NS(=O)(=O)c2ccc(-c3cnc(C4CC4)o3)cc2)c1 | > 100 | > 100 | 14.6 | 20.5 µM | > 42.6 | > 48.3 µM | > 66.3 | 50 µM | > 74.9 | > 89.7 | 0.146 | 0.314 | 0.233 | 2.3 µM | 0.0698 | 0.166 | 3.33 µM | 0.412 | 0.415 | 16
COc1ccccc1[As]=[As]c1ccccc1OC (stereo not given) | 0.289 | 0.271 | 0.218 | 0.228 µM | 0.147 | 0.204 µM | 0.14 | 0.3 µM | 0.179 | 0.141 | 0.0973 | 0.12 | 0.0785 | 0.102 µM | 0.0407 | 0.0382 | 0.036 µM | 0.157 | 0.0489 | 0.0401
CC(=O)Nc1ccc(S(=O)(=O)N=S(C)C)cc1 | > 100 | > 100 | > 100 | > 100 µM | > 100 | > 100 µM | > 100 | > 100 µM | > 100 | > 100 |  |  |  |  |  |  |  |  |  | 
CN(C)Cc1ccc(NC(=O)c2cncc(C#Cc3cnc(N)c4ncccc34)c2)cc1F | 7.11 | 4.01 | 29.3 | 21.6 µM |  | 5.3 µM | 4.24 | 35.3 µM | 3.56 | 34.9 | 2.57 | 2 | 9.83 | 4.53 µM |  | 2.21 | 2.25 µM | 14 | 1.92 | 14.5
O=C(Nc1cc(F)c(F)cc1C(=O)O)c1ccc(-n2ccnc2)nn1 | > 100 | > 100 | > 100 | > 100 µM | > 100 | > 100 µM | > 100 | > 100 µM | > 100 | > 100 | > 100 | > 100 | > 100 | > 100 µM | > 100 | > 100 | > 100 µM | > 100 | > 100 | > 100
COc1ccc(-c2cc(-c3ccc(Cl)cc3)nc(NCCCCNc3ccnc4cc(Cl)ccc34)n2)cc1 | 3.9 | 35.1 | 3.71 | 18.3 µM | 6.3 | 8.28 µM | 6.31 | 52.8 µM | 3.18 | 13.3 | 1.87 | 13.2 | 1.93 | 1.67 µM | 2.34 | 2.65 | 2.39 µM | 20.3 | 1.5 | 3.95
COc1ccc(O)cc1C(O)c1ccccc1 (stereo not given) | > 100 | > 100 | > 100 | > 100 µM | > 100 | > 100 µM | > 100 | > 100 µM | > 100 | > 100 |  |  |  |  |  |  |  |  |  | 
COc1ccc2c(O)c(/C=C3\N=Nc4ncccc43)oc2c1C[C@@H]1CCNC[C@H]1F | 3.93 | 2.56 | 4.09 | 9.21 µM | 2.2 | 0.544 µM | 1.39 | 4.04 µM | 2.22 | 5.91 | 1.31 | 0.426 | 1.67 | 4.7 µM | 0.557 | 0.181 | 0.294 µM | 1.93 | 0.458 | 2.11
OC1CCCC2CCC[N-]C12.OC1CCCC2CCC[N-]C12.[O]=[V][OH] (stereo not given) | > 100 | 22.8 | > 100 | > 100 µM | 14.9 | 10.6 µM | > 100 | 45 µM | > 100 | > 100 | 5.23 | 3.62 | 12.7 | 22.9 µM | 2.92 | 1.23 | 4.04 µM | 9.96 | 5.91 | 44.9
CCN(CC)CCN1c2nc3ccccc3cc2Sc2cc3ccccc3nc21 | 6.12 | 17.9 | 3.72 | 3.2 µM | 3.38 | 6.6 µM | 13 | 4.4 µM | 12.2 | 8.74 | 2.34 | 4.49 | 1.69 | 0.869 µM | 1.64 | 2.31 | 3.34 µM | 1.69 | 2.28 | 3.54
C#CC1(O)C(COP(=O)(O)OCC2OC(n3cc(F)c(=O)[nH]c3=O)CC2O)OC(n2ccc(N)nc2=O)C1O (stereo not given) | > 100 | > 29.8 |  | > 46.4 µM | 0.74 | 0.0124 µM | 5.81 | 5.78 µM |  |  | < 0.01 | 0.529 | < 0.01 | 0.196 µM | < 0.0201 | < 0.01 | < 0.01 µM | 0.0552 | < 0.01 | 0.01
CC1C=CC(C(N)C(=O)O)O1 (stereo not given) | > 100 | > 100 | > 100 | > 100 µM | > 100 | > 100 µM | > 100 | > 100 µM | > 100 |  |  |  |  |  |  |  |  |  |  | 
N#Cc1nc(C#N)c(Sc2ccccc2)c(Sc2ccccc2)c1Sc1ccccc1 |  | > 100 | 4.66 | 20.9 µM |  |  | 1.03 | > 21.6 µM | 0.378 | 3.43 |  | 1.25 | 2.24 | 2.52 µM |  | 0.317 | 0.331 µM | 2.17 | 0.191 | 0.502
CCCCOc1ccc(/C=N/Nc2cc(C)nc3ccc(Br)cc23)cc1 | 3.52 | 3.03 | 3.73 | 3.11 µM | 3.2 | 4.11 µM |  | 2.86 µM | 3.25 | 3.31 | 1.88 | 1.63 | 2.12 | 1.54 µM | 1.74 | 1.91 |  | 1.47 | 1.74 | 1.91
